Laboratory results from article PMC9739371, “Deciphering the Binding of the Nuclear Localization Sequence of Myc Protein to the Nuclear Carrier Importin α3” (International Journal of Molecular Sciences, 2022).

Assay: Translational diffusion NMR (DOSY)
Type: physicochemical
Conditions: 500 MHz, 10 °C, 1.8 mM peptide, 100 mM sodium phosphate pH 7.0, 100% D2O, 1% dioxane as reference
Experimental: The NMR spectra were acquired at 10 °C on a Bruker Avance 500 MHz spectrometer (Bruker GmbH, Karlsruhe, Germany), equipped with a triple resonance probe and z-pulse field gradients. Spectra were processed with Bruker TopSpin 2.1 (Bruker GmbH, Karlsruhe, Germany). […] Spectra were calibrated with 3-(trimethylsilyl) propionic acid-2,2,3,3-^2H4-sodium salt (TSP), by considering pH-dependent changes of its chemical shifts; the probe temperature was calibrated with pure methanol [49].
Measurements of the translational self-diffusion coefficient, D, were performed with the pulsed-gradient spin-echo sequence in the presence of 100% D2O. […] The gradient strength was varied in sixteen linear steps between 2% to 95% of the total power of the gradient coil. Gradient strength was calibrated by using the value of D for the residual proton water signal in a sample containing 100% D2O, in a 5-mm tube [51]. The length of the gradient was 2.5 ms; the time between two pulse gradients in the pulse sequence was 250 ms; and the recovery delay between the bipolar gradients was 100 µs. […] A final concentration of 1% of dioxane, which was assumed to have a hydrodynamic radius Rh = 2.12 Å [51], was added to the solution.

C1COCCO1 [dioxane]
translational diffusion coefficient D: 5.3 ± 0.6 × 10^−6 cm^2 s^−1
